Five compounds from article PMC10184129 (Journal of Medicinal Chemistry, 2023) can be followed below.

Molecules are shown by their SMILES.

The target in test [1] is T1, hBChE (Homo sapiens, UniProt P06276).
For test [2], the system named is murine microglial N9 cells. The note with it: LPS 100 ng/mL, 24 h; for TREM2 and TGFβ2 expression: 1-5 μM.
In test [3] the test system is Aβ25–35-induced learning impairments in mice. The note with it: 3 mg/kg IP.
In test [4] the target is T1, hBChE. This is another data set of the same source.
The next test addresses rCB1R (Rattus norvegicus, UniProt P20272).
The next test concerns the target hCB2R (Homo sapiens, UniProt P34972).

T1 sequence (P06276 29-602): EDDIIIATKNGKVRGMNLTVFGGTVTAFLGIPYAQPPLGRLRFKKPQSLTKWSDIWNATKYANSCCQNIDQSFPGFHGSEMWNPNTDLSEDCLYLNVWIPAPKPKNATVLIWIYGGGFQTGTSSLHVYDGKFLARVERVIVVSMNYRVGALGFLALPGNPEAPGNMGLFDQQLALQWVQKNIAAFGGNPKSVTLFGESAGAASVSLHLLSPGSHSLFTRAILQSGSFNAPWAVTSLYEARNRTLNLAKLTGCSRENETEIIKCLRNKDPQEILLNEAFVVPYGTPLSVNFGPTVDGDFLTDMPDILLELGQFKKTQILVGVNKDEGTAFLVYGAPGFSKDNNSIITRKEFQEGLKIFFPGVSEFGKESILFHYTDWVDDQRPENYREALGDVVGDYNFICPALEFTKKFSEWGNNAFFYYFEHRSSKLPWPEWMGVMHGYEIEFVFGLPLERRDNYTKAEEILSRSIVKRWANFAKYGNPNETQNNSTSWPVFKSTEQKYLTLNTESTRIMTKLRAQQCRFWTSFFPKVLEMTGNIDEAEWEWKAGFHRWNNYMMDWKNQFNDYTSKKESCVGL
Chain of rCB1R (P20272 whole entry): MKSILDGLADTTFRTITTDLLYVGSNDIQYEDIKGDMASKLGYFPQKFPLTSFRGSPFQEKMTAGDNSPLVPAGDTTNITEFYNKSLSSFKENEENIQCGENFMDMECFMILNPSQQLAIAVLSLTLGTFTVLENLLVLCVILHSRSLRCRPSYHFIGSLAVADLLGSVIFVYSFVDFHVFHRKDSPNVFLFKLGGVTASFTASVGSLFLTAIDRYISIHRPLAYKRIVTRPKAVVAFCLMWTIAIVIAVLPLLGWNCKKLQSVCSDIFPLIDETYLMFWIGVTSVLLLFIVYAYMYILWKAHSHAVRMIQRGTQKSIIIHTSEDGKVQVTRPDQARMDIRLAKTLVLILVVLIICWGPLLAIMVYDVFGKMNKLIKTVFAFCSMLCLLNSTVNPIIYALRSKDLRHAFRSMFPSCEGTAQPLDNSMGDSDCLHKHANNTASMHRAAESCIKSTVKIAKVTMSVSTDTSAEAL
Chain of hCB2R (P34972 whole entry): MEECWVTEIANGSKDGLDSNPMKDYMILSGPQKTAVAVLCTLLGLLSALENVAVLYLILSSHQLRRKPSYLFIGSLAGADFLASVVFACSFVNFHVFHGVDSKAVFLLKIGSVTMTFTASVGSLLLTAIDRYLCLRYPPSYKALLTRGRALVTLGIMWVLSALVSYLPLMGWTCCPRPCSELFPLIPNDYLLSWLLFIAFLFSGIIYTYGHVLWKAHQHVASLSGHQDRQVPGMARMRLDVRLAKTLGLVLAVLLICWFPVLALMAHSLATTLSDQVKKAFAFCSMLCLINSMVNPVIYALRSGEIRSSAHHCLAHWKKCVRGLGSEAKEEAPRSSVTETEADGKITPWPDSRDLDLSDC

On to `CCN(CC)C(=O)c1ccc2c(c1)nc(Cc1ccc(OC(=O)N(C)C)cc1)n2CCC(C)C` [15d, 4-((5-(Diethylcarbamoyl)-1-isopentyl-1H-benzo[d]imidazole-2-yl)methyl)phenyl dimethylcarbamate], for which the “νmax, times higher than compound 21d” value on hBChE [1] was 15. Further, in test [2], the “TREM2 and TGFβ2 expression” value is “No parallel change”. For the same compound, in test [2] (Western blot), the “concentration significantly decreasing expression of (i)NOS” value was found to be 1.0 µM. Also, the “effect of highest dose on Aβ25–35-induced learning deficits, passive avoidance” value in test [3] is recorded as “complete blockade”.

As for `CCOc1ccc(Cc2nc3cc(OC(=O)N(C)C)ccc3n2CCC(C)C)cc1` [21a, 2-(4-Ethoxybenzyl)-1-isopentyl-1H-benzo[d]imidazole-5-yl dimethylcarbamate], the “fold less active on hBChE than counterpart 15d” value on hBChE [4] was “more than 100 fold”.

Turning to `CCOc1ccc(Cc2nc3cc(OC(=O)N(C)CC)ccc3n2CCC(C)C)cc1` [21b, 2-(4-Ethoxybenzyl)-1-isopentyl-1H-benzo[d]imidazole-5-yl ethyl(methyl)carbamate], the “affinity toward CB1R (in words)” value on rCB1R was “only exception”.

`CCOc1ccc(Cc2nc3cc(OC(=O)N4CCC4)ccc3n2CCC(C)C)cc1` [21d, 2-(4-Ethoxybenzyl)-1-isopentyl-1H-benzo[d]imidazole-5-yl Azetidine-1-carboxylate]: in test [2], the “TREM2 and TGFβ2 expression” value was “No parallel change”. In test [2] (Western blot), the “concentration significantly decreasing expression of (i)NOS” value is 2.5 µM and the “concentration significantly reducing IL1β release” value was determined as 1.0 µM.

As to `CCOc1ccc(Cc2nc3cc(C(=O)N(CC)CC)ccc3n2CCC(C)C)cc1` [compound 4], the “agonist character in calcium mobilization” value on hCB2R is “full agonist”.
